Data from patent US20240262826A1, “WILD TYPE KIT INHIBITORS” (Blueprint Medicines Corporation, priority 2022, published 2024).

Biological target: wild type c-kit (Homo sapiens (Human), UniProt P10721)
Test: PathScan phospho c-kit (Tyr719) sandwich ELISA in SCF-stimulated M-07e cells (pKIT assay)
Assay type: cell-based
Details: ELISA assay (values not marked *)
Description: The ability of compounds of the disclosure (described herein as test compounds) to inhibit autophosphorylation of wild type c-kit was measures using either a PathScan phospho c-kit (Tyr719) sandwich ELISA (CST #7298) or a Phospho c-Kit (Tyr721) Assay Whole Cell Lysate Kit (MSD: 515DPD/catalog number K15119D-2).
For the PathScan phospho c-kit (Tyr719) sandwich ELISA: M-07e cells were resuspended at 2×10^6 cells/mL in phenol red free, serum-free, GM-CSF-free Iscove's Modified Dulbecco's Medium (IMDM) media with 1% Penicillin-Streptomycin. The cells were then dispensed into the wells of a U-bottom, 96-well plate at 50 uL per well using a multichannel pipet. The plate was allowed to incubate at 37° C. in a humidified tissue culture incubator for 4 hours.
After 4 hours of incubation, each well was dosed with 6.25 uL of test compound at a final DMSO concentration of 0.25% for 60 min at 37° C. to generate an 8-point dose concentration series of test compounds in duplicate. Cells were then incubated for 1 hour at 37° C. in a humidified tissue culture incubator. Next, human SCF at 500 ng/mL was added to the appropriate wells at 6.25 uL/well and the plate was shaken at 450 rpm at room temperature for 10 minutes. AlphaLISA 5× Lysis Buffer supplemented with 1× protease and phosphatase inhibitor was then added at 16 uL/well. The plate was sealed with an adherent cover and shaken at 4° C. at 600 rpm for 30 minutes. After this period of lysis, the plate was stored at −80° C.
When the 96-well plate containing M07e lysates was ready to be processed, the plate was brought to room temperature and 40 μl from each well was transferred to the wells of a PathScan Phospho-c-Kit (Tyr719) Sandwich ELISA plate (CST, Catalog #7298). The ELISA plate was sealed with an adherent cover and incubated for 2 hours at 37° C. Next, the wells were washed 4 times with the provided 1× Wash Buffer, and 100 uL/well of reconstituted Detection Antibody was added to each well, the plate sealed with an adherent cover, and incubated at 37° C. for 1 hour. The wash procedure was repeated and 100 uL/well of reconstituted HRP-Linked secondary antibody was added. The plate was sealed with an adherent cover and incubated at 37° C. for 1 hour. The wash procedure was repeated and 100 uL/well of TMB Substrate was added. The plate was incubated for 10 minutes at room temperature or until the positive reaction elicited a blue color in the appropriate wells. 100 uL/well of STOP solution was added and shaken gently for a few seconds a microplate reader or conventional spectrophotometer e.g., a Perkin Elmer Envision multimode plate reader, part #2105-0010.
An IC50 was calculated using a 4-parameter logistic nonlinear regression.

Sequence of wild type c-kit (P10721 26-976): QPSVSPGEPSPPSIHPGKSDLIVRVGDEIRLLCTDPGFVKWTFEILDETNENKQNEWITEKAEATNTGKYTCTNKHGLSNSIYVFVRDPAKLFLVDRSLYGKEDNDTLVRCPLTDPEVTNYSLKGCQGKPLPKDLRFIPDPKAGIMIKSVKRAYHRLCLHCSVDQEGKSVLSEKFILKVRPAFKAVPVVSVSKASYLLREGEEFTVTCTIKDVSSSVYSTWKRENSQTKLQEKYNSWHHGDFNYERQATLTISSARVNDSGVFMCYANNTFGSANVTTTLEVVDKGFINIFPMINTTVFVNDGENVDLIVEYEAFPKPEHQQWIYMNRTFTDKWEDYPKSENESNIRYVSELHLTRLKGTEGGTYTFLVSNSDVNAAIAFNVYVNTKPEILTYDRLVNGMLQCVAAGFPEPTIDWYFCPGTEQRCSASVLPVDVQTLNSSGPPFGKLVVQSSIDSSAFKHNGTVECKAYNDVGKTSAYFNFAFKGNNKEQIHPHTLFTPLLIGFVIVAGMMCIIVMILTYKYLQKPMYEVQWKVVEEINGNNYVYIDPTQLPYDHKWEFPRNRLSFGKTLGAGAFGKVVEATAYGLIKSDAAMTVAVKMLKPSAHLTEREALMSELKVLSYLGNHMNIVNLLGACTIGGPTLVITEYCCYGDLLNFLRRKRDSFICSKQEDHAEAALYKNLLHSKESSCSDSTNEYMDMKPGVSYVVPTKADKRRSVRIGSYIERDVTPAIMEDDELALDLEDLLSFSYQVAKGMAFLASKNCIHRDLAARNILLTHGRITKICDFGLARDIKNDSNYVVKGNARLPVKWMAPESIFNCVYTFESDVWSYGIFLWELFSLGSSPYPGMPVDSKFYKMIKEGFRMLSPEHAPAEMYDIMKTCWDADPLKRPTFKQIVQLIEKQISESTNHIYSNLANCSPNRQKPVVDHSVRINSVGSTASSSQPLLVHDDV

With `Cc1nnn(-c2ccc(C)c(NC(=O)c3cnn4ccc(Nc5cn[nH]c5)cc34)c2)n1` [Example 231, 5-((1H-pyrazol-4-yl)amino)-N-(2-methyl-5-(5-methyl-2H-tetrazol-2-yl)phenyl)pyrazolo[1,5-a]pyridine-3-carboxamide] the IC50 was 3.6 nM.

For `COCCNc1ccn2ncc(C(=O)Nc3cc(-c4nnn(C5CN(C(=O)OC)C5)n4)ccc3F)c2c1` [Example 115, methyl 3-(5-(4-fluoro-3-(5-((2-methoxyethyl)amino)pyrazolo[1,5-a]pyridine-3-carboxamido)phenyl)-2H-tetrazol-2-yl)azetidine-1-carboxylate], the IC50 was 12.4 nM.

`O=C(Nc1cc(-c2nnn(C3CC(F)(F)C3)n2)ccc1Cl)c1cnn2ccccc12` [Example 17, N-(2-chloro-5-(2-(3,3-difluorocyclobutyl)-2H-tetrazol-5-yl)phenyl)pyrazolo[1,5-a]pyridine-3-carboxamide] gave an IC50 of 6.5 nM.

For `CCn1nnc(-c2cc(NC(=O)c3cnn4ccc(-c5c(C)nn(CC(C)(C)O)c5C)cc34)c(C)cc2F)n1` [Example 246, N-(5-(2-ethyl-2H-tetrazol-5-yl)-4-fluoro-2-methylphenyl)-5-(1-(2-hydroxy-2-methylpropyl)-3,5-dimethyl-1H-pyrazol-4-yl)pyrazolo[1,5-a]pyridine-3-carboxamide], the IC50 was 0.7 nM.

Compound `COC(=O)N1CC(n2nnc(-c3ccc(C)c(NC(=O)c4cnn5ccc(N6CCN(C7COC7)CC6)cc45)c3)n2)C1` [Example 74, methyl 3-(5-(4-methyl-3-(5-(4-(oxetan-3-yl)piperazin-1-yl)pyrazolo[1,5-a]pyridine-3-carboxamido)phenyl)-2H-tetrazol-2-yl)azetidine-1-carboxylate] has an IC50 of 63.9 nM.

Work on `Cc1ccc(-c2nnn(C3CN(S(=O)(=O)CCCCC#N)C3)n2)cc1NC(=O)c1cnn2ccccc12` [Example 186, N-(5-(2-(1-((4-cyanobutyl)sulfonyl)azetidin-3-yl)-2H-tetrazol-5-yl)-2-methylphenyl)pyrazolo[1,5-a]pyridine-3-carboxamide] yielded an IC50 of 103 nM.

`COCCNc1ccn2ncc(C(=O)Nc3cc(-n4ncc(C5CN(C(=O)OC)C5)n4)ccc3Cl)c2c1` [Example 111, methyl 3-(2-(4-chloro-3-(5-((2-methoxyethyl)amino)pyrazolo[1,5-a]pyridine-3-carboxamido)phenyl)-2H-1,2,3-triazol-4-yl)azetidine-1-carboxylate] gave an IC50 of 11.8 nM.

Compound `COCCNc1ccn2ncc(C(=O)Nc3cc(-c4nnn([C@H]5C[C@H](CO)C5)n4)ccc3C)c2c1` [Example 201, N-(5-(2-((1r,3r)-3-(hydroxymethyl)cyclobutyl)-2H-tetrazol-5-yl)-2-methylphenyl)-5-((2-methoxyethyl)amino)pyrazolo[1,5-a]pyridine-3-carboxamide] has an IC50 of 15.6 nM.

`Cc1cc(F)c(NC(=O)c2cnn3ccc(-c4cnn(CC(C)(C)O)c4)cc23)cc1-c1nnn(C2CC2)n1` [Example 215, N-(5-(2-cyclopropyl-2H-tetrazol-5-yl)-2-fluoro-4-methylphenyl)-5-(1-(2-hydroxy-2-methylpropyl)-1H-pyrazol-4-yl)pyrazolo[1,5-a]pyridine-3-carboxamide] was tested, and the IC50 was 23.7 nM.

Work on `Cc1ccc(-c2nnn(C3CC3)n2)cc1NC(=O)c1cnn2ccc(-c3cnn([C@@H](C)[C@H](C)O)c3C)cc12` (single isomer, unassigned) [Example 270, N-(5-(2-cyclopropyl-2H-tetrazol-5-yl)-2-methylphenyl)-5-(1-((2S,3S)-3-hydroxybutan-2-yl)-5-methyl-1H-pyrazol-4-yl)pyrazolo[1,5-a]pyridine-3-carboxamide or N-(5-(2-cyclopropyl-2H-tetrazol-5-yl)-2-methylphenyl)-5-(1-((2R,3R)-3-hydroxybutan-2-yl)-5-methyl-1H-pyrazol-4-yl)pyrazolo[1,5-a]pyridine-3-carboxamide] yielded an IC50 of 0.5 nM.

`COC(=O)N1CC(n2nnc(-c3ccc(C)c(NC(=O)c4cnn5ccc(N6CCO[C@@H](CO)C6)cc45)c3)n2)C1` [Example 91, methyl (R)-3-(5-(3-(5-(2-(hydroxymethyl)morpholino)pyrazolo[1,5-a]pyridine-3-carboxamido)-4-methylphenyl)-2H-tetrazol-2-yl)azetidine-1-carboxylate] was tested, and the IC50 was 50.9 nM.

With `COC(=O)N1CC(n2nnc(-c3ccc(C)c(NC(=O)c4cnn5ccc(N[C@@H]6CCOC6)cc45)c3)n2)C1` [Example 129, methyl (R)-3-(5-(4-methyl-3-(5-((tetrahydrofuran-3-yl)amino)pyrazolo[1,5-a]pyridine-3-carboxamido)phenyl)-2H-tetrazol-2-yl)azetidine-1-carboxylate] the IC50 was 29.6 nM.

`Cc1ccc(-c2nnn(C3CC(F)(F)C3)n2)cc1NC(=O)c1cnn2ccc(NCC(F)(F)CO)cc12` [Example 102, 5-((2,2-difluoro-3-hydroxypropyl)amino)-N-(5-(2-(3,3-difluorocyclobutyl)-2H-tetrazol-5-yl)-2-methylphenyl)pyrazolo[1,5-a]pyridine-3-carboxamide] showed an IC50 of 2.6 nM.

In the case of `COC[C@H](O)Cn1cc(-c2ccn3ncc(C(=O)Nc4cc(-c5nnn(C6CC6)n5)c(F)cc4Cl)c3c2)c(C)n1` [Example 279, (R)—N-(2-chloro-5-(2-cyclopropyl-2H-tetrazol-5-yl)-4-fluorophenyl)-5-(1-(2-hydroxy-3-methoxypropyl)-3-methyl-1H-pyrazol-4-yl)pyrazolo[1,5-a]pyridine-3-carboxamide], the IC50 is reported as 0.6 nM.

Compound `COC(=O)N1CC(n2nnc(-c3ccc(C)c(NC(=O)c4cnn5ccc(N6CCN(CC(F)F)CC6)cc45)c3)n2)C1` [Example 73, methyl 3-(5-(3-(5-(4-(2,2-difluoroethyl)piperazin-1-yl)pyrazolo[1,5-a]pyridine-3-carboxamido)-4-methylphenyl)-2H-tetrazol-2-yl)azetidine-1-carboxylate] has an IC50 of 46.6 nM.

In the case of `[2H]C([2H])([2H])N1CCN(c2ccn3ncc(C(=O)Nc4cc(-c5nnn(C6CN(C(=O)OC)C6)n5)ccc4C)c3c2)CC1` [Example 72, methyl 3-(5-(4-methyl-3-(5-(4-(methyl-d3)piperazin-1-yl)pyrazolo[1,5-a]pyridine-3-carboxamido)phenyl)-2H-tetrazol-2-yl)azetidine-1-carboxylate], the IC50 is reported as 38.4 nM.

With `[2H]C([2H])([2H])OCCNc1ccn2ncc(C(=O)Nc3cc(-c4nnn(C5CN(C(=O)OC)C5)n4)ccc3C)c2c1` [Example 100, methyl 3-(5-(3-(5-((2-(methoxy-d3)ethyl)amino)pyrazolo[1,5-a]pyridine-3-carboxamido)-4-methylphenyl)-2H-tetrazol-2-yl)azetidine-1-carboxylate] the IC50 was 33.8 nM.

Compound `CCCS(=O)(=O)N1CC(n2nnc(-c3ccc(C)c(NC(=O)c4cnn5ccccc45)c3)n2)C1` [Example 174] has an IC50 of 28.5 nM.

With `Cc1cc(Cl)c(NC(=O)c2cnn3ccc(N4CCOCC4)cc23)cc1-c1nnn(C2CC(F)(F)C2)n1` [Example 170, N-(2-chloro-5-(2-(3,3-difluorocyclobutyl)-2H-tetrazol-5-yl)-4-methylphenyl)-5-morpholinopyrazolo[1,5-a]pyridine-3-carboxamide] the IC50 was 6.3 nM.

`COC(=O)N1CC(n2nnc(-c3ccc(Cl)c(NC(=O)c4cnn5ccccc45)c3)n2)C1` [Example 192] gave an IC50 of 10.6 nM.

`CCNc1ccn2ncc(C(=O)Nc3cc(-n4ncc(C5CN(C(=O)OC)C5)n4)ccc3C)c2c1` [Example 137, methyl 3-(2-(3-(5-(ethylamino)pyrazolo[1,5-a]pyridine-3-carboxamido)-4-methylphenyl)-2H-1,2,3-triazol-4-yl)azetidine-1-carboxylate] gave an IC50 of 16.8 nM.

Compound `COC(=O)N1CC(n2nnc(-c3ccc(C)c(NC(=O)c4cnn5ccc(N6CCC[C@H](O)C6)cc45)c3)n2)C1` [Example 70, methyl (S)-3-(5-(3-(5-(3-hydroxypiperidin-1-yl)pyrazolo[1,5-a]pyridine-3-carboxamido)-4-methylphenyl)-2H-tetrazol-2-yl)azetidine-1-carboxylate] has an IC50 of 53.1 nM.

Compound `CC(C)(O)Cn1cc(-c2ccn3ncc(C(=O)Nc4cc(-n5nnc(C6CC6)n5)ccc4Cl)c3c2)cn1` [Example 216, N-(2-chloro-5-(5-cyclopropyl-2H-tetrazol-2-yl)phenyl)-5-(1-(2-hydroxy-2-methylpropyl)-1H-pyrazol-4-yl)pyrazolo[1,5-a]pyridine-3-carboxamide] has an IC50 of 2.4 nM.

`O=C(Nc1cc(-c2nnn(CC3CC3(F)F)n2)ccc1Cl)c1cnn2ccccc12` (stereo not drawn) [Example 16, N-(2-chloro-5-(2-((2,2-difluorocyclopropyl)methyl)-2H-tetrazol-5-yl)phenyl)pyrazolo[1,5-a]pyridine-3-carboxamide] gave an IC50 of 2.3 nM.
